Test results from US20170313669A1, “LACTONE COMPOUNDS AND METHODS OF MAKING AND USING SAME” (THE SCRIPPS RESEARCH INSTITUTE, priority 2015, published 2017).

How the values were obtained:
Format in all cases: biochemical
ABHD16A (mouse) = target: T1, ABHD16A (mouse) (Mus musculus, UniProt Q9Z1Q2); experiment: Lipid substrate hydrolysis assay, murine ABHD16A-transfected HEK293T membrane proteome; settings: substrate 100 μM
T1 construct: full-length cDNA of human ABHD16A (Open Biosystems Catalog # MHS6278-202758315) or murine ABHD16A (Open Biosystems Catalog # MMM1013-202760516) in pCMV-SPORT6 vector; host or cells: HEK293T
T1 sequence (Q9Z1Q2 whole entry): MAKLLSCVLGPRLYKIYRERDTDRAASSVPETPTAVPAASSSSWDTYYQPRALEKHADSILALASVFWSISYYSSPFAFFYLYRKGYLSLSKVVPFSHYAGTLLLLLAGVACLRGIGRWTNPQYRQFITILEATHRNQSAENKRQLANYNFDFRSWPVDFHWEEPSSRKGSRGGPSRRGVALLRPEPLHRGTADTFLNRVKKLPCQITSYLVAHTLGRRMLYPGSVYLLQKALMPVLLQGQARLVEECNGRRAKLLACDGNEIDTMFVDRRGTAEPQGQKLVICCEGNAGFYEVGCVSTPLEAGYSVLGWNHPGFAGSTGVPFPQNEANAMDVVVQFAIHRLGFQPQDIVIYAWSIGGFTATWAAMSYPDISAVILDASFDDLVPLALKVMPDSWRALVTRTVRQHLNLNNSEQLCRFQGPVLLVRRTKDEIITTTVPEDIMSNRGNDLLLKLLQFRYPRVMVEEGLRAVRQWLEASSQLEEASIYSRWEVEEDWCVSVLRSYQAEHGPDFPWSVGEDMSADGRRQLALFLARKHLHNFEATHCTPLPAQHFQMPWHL
Protocol: (§1) All the lipid species used in the lipid substrate hydrolysis assays were purchased from Avanti Polar Lipids Inc unless mentioned otherwise. In general, 20 μg of proteome was incubated with 100 μM lipid in a reaction volume of 100 μL in PBS at 30° C. with constant shaking. After 30 minutes the reaction was quenched with 350 μL of 2:1 (vol/vol) CHCl3: MeOH, doped with 0.5 nmol internal standard (17:1 FFA). The mixture was vortexed, and the centrifuged at 2800×g for 5 minutes to separate the aqueous (top) and organic (bottom) phase. The organic phase was collected. 5 μL of formic acid was added to the aqueous phase, and extracted again using 350 μL of 2:1 (vol/vol) CHCl3: MeOH using above mentioned protocol. The organic phase was collected, and pooled with the organic phase from the first extraction. […] All the data was collected and analyzed using the Agilent MassHunter Workstation software version B.04 using the Data Acquisition and Quantitative Analysis programs respectively. Measuring the area under the peak, and normalizing it to the internal standard quantified the product release for the lipid substrate hydrolysis assays. […] Some products from the substrate hydrolysis assays were detected in positive ion mode for qualitative identification. […]

[1] = Lipid substrate hydrolysis assay, mock-transfected HEK293T membrane proteome; settings: substrate 100 μM
Protocol: as §1

[2] = target: T2, ABHD16A (WT and S355A mutant) (Homo sapiens, UniProt O95870); experiment: Activity-dependent labeling of ABHD16A by WHP01 in transfected HEK293T lysates; settings: transfected HEK293T cell lysates
T2 construct: All full-length cDNA constructs coding for serine hydrolases ABHD16A, and ABHD12 were purchased from Open Biosystems; FLAG; expressed in transfected cells; host or cells: HEK293T
T2 sequence (O95870 whole entry S355A): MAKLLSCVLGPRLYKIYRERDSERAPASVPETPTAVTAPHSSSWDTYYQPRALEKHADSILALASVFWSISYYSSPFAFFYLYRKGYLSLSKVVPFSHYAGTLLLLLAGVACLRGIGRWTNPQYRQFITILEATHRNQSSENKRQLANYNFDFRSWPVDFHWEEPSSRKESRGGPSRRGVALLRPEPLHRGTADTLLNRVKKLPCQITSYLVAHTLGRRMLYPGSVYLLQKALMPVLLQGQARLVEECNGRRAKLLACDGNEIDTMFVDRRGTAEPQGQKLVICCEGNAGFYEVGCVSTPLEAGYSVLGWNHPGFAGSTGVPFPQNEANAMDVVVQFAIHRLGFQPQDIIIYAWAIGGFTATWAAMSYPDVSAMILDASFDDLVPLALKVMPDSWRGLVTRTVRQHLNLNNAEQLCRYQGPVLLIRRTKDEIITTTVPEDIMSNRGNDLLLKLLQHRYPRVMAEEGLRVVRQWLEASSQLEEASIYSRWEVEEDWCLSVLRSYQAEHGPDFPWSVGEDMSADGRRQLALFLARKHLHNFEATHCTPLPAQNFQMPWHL

Row | Lipase activity, ABHD16A, Mean (ABHD16A (mouse)) [nmol/mg/min] | Lipase activity, Mock, Mean [1] [nmol/mg/min] | Compound | labeling of ABHD16A [2]
1 | 12.5 | 3.8 | PG 16:0/18:1 | –
2 | – | – | CCCCCCCCCCCCCC1OC(=O)/C1=C\CCCC(=O)NCCCCCNC(=O)c1ccc(-c2c3ccc(=[N+](C)C)cc-3oc3cc(N(C)C)ccc23)c(C(=O)[O-])c1 (stereo not drawn) [WHP01, (Z)-2-(6-(dimethylamino)-3-(dimethyliminio)-3H-xanthen-9-yl)-5-((5-(5-(2-oxo-4-tridecyloxetan-3-ylidene)pentanamido)pentyl)carbamoyl)benzoate] | labeled WT-ABHD16A but not the catalytic serine S355A mutant
